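All cell lines were grown in 96-well plates and treated with compound for 48 hours. GI50 = concentration required for 50% inhibition of growth. At the TGI there is no net growth.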
Tests used:
Assay in all cases: inhibition of tumour cell growth, NCI panel, 48 h
EKVX NSCLC = test system: EKVX NSCLC
HCT-15 colon = test system: HCT-15 colon
SK-MEL-28 melanoma = test system: SK-MEL-28 melanoma
BT-549 breast = test system: BT-549 breast
NCI-H522 lung = test system: NCI-H522 lung
KM12 colon = test system: KM12 colon
HS 578T breast = test system: HS 578T breast
HL-60(TB) leukemia = test system: HL-60(TB) leukemia
HT29 colon = test system: HT29 colon
NCI/ADR-RES ovarian = test system: NCI/ADR-RES ovarian
OVCAR-4 ovarian = test system: OVCAR-4 ovarian
UACC-62 melanoma = test system: UACC-62 melanoma
MALME-3M melanoma = test system: MALME-3M melanoma
T-47D breast = test system: T-47D breast
UO-31 renal = test system: UO-31 renal
DU-145 prostate = test system: DU-145 prostate
SK-MEL-2 melanoma = test system: SK-MEL-2 melanoma
786-0 renal = test system: 786-0 renal
HCC-2998 colon = test system: HCC-2998 colon
SK-OV-3 ovarian = test system: SK-OV-3 ovarian
ACHN renal = test system: ACHN renal
UACC-257 melanoma = test system: UACC-257 melanoma
MDA-MB-231 breast = test system: MDA-MB-231 breast
SW-620 colon = test system: SW-620 colon
SF-539 CNS = test system: SF-539 CNS
IGROV1 ovarian = test system: IGROV1 ovarian
OVCAR-3 ovarian = test system: OVCAR-3 ovarian
A498 renal = test system: A498 renal
PC-3 prostate = test system: PC-3 prostate
OVCAR-5 ovarian = test system: OVCAR-5 ovarian
MDA-MB-435 = test system: MDA-MB-435
TK-10 renal = test system: TK-10 renal
NCI-H226 lung = test system: NCI-H226 lung
SN12C renal = test system: SN12C renal
A549 NSCLC = test system: A549 NSCLC
SK-MEL-5 melanoma = test system: SK-MEL-5 melanoma
HCT-116 colon = test system: HCT-116 colon
OVCAR-8 ovarian = test system: OVCAR-8 ovarian
SNB-75 CNS = test system: SNB-75 CNS
NCI-H460 lung = test system: NCI-H460 lung
RXF 393 renal = test system: RXF 393 renal
MOLT-4 leukemia = test system: MOLT-4 leukemia
CCRF-CEM leukemia = test system: CCRF-CEM leukemia
HOP-92 NSCLC = test system: HOP-92 NSCLC
SF-268 CNS = test system: SF-268 CNS
RPMI-8226 leukemia = test system: RPMI-8226 leukemia
K-562 leukemia = test system: K-562 leukemia
MCF7 breast = test system: MCF7 breast
COLO 205 colon = test system: COLO 205 colon
LOX IMVI melanoma = test system: LOX IMVI melanoma
NCI-H23 lung = test system: NCI-H23 lung
SNB-19 CNS = test system: SNB-19 CNS
M14 melanoma = test system: M14 melanoma
SF-295 CNS = test system: SF-295 CNS
U251 CNS = test system: U251 CNS
HOP-62 NSCLC = test system: HOP-62 NSCLC
SR leukemia = test system: SR leukemia

CCOC(=O)c1cc(C(=O)c2cc(OC)c(OC)c(OC)c2)n2ccc(-c3cc[n+](CC(=O)c4cc(OC)c(OC)c(OC)c4)cc3)cc12
GI50 (EKVX NSCLC): 2.64 µM
TGI (EKVX NSCLC): 10.3 µM
GI50 (HCT-15 colon): 2.62 µM
TGI (HCT-15 colon): 7.93 µM
GI50 (SK-MEL-28 melanoma): 1.75 µM
TGI (SK-MEL-28 melanoma): 3.6 µM
GI50 (BT-549 breast): 1.98 µM
TGI (BT-549 breast): 4.49 µM
GI50 (NCI-H522 lung): 2.13 µM
TGI (NCI-H522 lung): 5.04 µM
GI50 (KM12 colon): 1.81 µM
TGI (KM12 colon): 3.42 µM
GI50 (HS 578T breast): 1.74 µM
TGI (HS 578T breast): 4.29 µM
GI50 (HL-60(TB) leukemia): 2.58 µM
TGI (HL-60(TB) leukemia): 5.75 µM
GI50 (HT29 colon): 1.83 µM
TGI (HT29 colon): 3.68 µM
GI50 (NCI/ADR-RES ovarian): > 100 µM
TGI (NCI/ADR-RES ovarian): > 100 µM
GI50 (OVCAR-4 ovarian): 1.74 µM
TGI (OVCAR-4 ovarian): 3.67 µM
GI50 (UACC-62 melanoma): 2.32 µM
TGI (UACC-62 melanoma): 5.72 µM
GI50 (MALME-3M melanoma): 1.73 µM
TGI (MALME-3M melanoma): 3.68 µM
GI50 (T-47D breast): 1.94 µM
TGI (T-47D breast): 4.85 µM
GI50 (UO-31 renal): 7.97 µM
TGI (UO-31 renal): 26.5 µM
GI50 (DU-145 prostate): 1.8 µM
TGI (DU-145 prostate): 3.39 µM
GI50 (SK-MEL-2 melanoma): 2.6 µM
TGI (SK-MEL-2 melanoma): 7.12 µM
GI50 (786-0 renal): 1.75 µM
TGI (786-0 renal): 3.39 µM
GI50 (HCC-2998 colon): 3.32 µM
TGI (HCC-2998 colon): 15.1 µM
GI50 (SK-OV-3 ovarian): 19.6 µM
TGI (SK-OV-3 ovarian): 47.1 µM
GI50 (ACHN renal): 3.33 µM
TGI (ACHN renal): 13.6 µM
GI50 (UACC-257 melanoma): 3.13 µM
TGI (UACC-257 melanoma): 7.04 µM
GI50 (MDA-MB-231 breast): 1.66 µM
TGI (MDA-MB-231 breast): 3.29 µM
GI50 (SW-620 colon): 1.76 µM
TGI (SW-620 colon): 3.47 µM
GI50 (SF-539 CNS): 1.61 µM
TGI (SF-539 CNS): 3.3 µM
GI50 (IGROV1 ovarian): 2.12 µM
TGI (IGROV1 ovarian): 5.92 µM
GI50 (OVCAR-3 ovarian): 1.83 µM
TGI (OVCAR-3 ovarian): 3.6 µM
GI50 (A498 renal): 1.96 µM
TGI (A498 renal): 3.85 µM
GI50 (PC-3 prostate): 2.61 µM
TGI (PC-3 prostate): 8.12 µM
GI50 (OVCAR-5 ovarian): 1.84 µM
TGI (OVCAR-5 ovarian): 5.24 µM
GI50 (MDA-MB-435): 1.9 µM
TGI (MDA-MB-435): 3.85 µM
GI50 (TK-10 renal): 1.79 µM
TGI (TK-10 renal): 3.5 µM
GI50 (NCI-H226 lung): 2.37 µM
TGI (NCI-H226 lung): 6.62 µM
GI50 (SN12C renal): 1.87 µM
TGI (SN12C renal): 3.87 µM
GI50 (A549 NSCLC): 3.29 µM
TGI (A549 NSCLC): 6.29 µM
GI50 (SK-MEL-5 melanoma): 1.81 µM
TGI (SK-MEL-5 melanoma): 3.54 µM
GI50 (HCT-116 colon): 1.72 µM
TGI (HCT-116 colon): 3.5 µM
GI50 (OVCAR-8 ovarian): 2.33 µM
TGI (OVCAR-8 ovarian): 5.47 µM
GI50 (SNB-75 CNS): 1.46 µM
TGI (SNB-75 CNS): 3.36 µM
GI50 (NCI-H460 lung): 2 µM
TGI (NCI-H460 lung): 3.78 µM
GI50 (RXF 393 renal): 1.66 µM
TGI (RXF 393 renal): 3.48 µM

C=C1C(=O)O[C@H]2[C@H]1CC/C(COC(=O)N[C@H](Cc1c[nH]c3ccccc13)C(=O)OC)=C\CC[C@@]1(C)O[C@@H]21
GI50 (MOLT-4 leukemia): 2.5 µM
TGI (MOLT-4 leukemia): 7.54 µM
GI50 (EKVX NSCLC): 1.8 µM
TGI (EKVX NSCLC): 5.66 µM
GI50 (CCRF-CEM leukemia): 1.78 µM
TGI (CCRF-CEM leukemia): 6.69 µM
GI50 (HCT-15 colon): 1.53 µM
TGI (HCT-15 colon): 3.43 µM
GI50 (SK-MEL-28 melanoma): 1.96 µM
TGI (SK-MEL-28 melanoma): 4.48 µM
GI50 (BT-549 breast): 1.37 µM
TGI (BT-549 breast): 2.96 µM
GI50 (NCI-H522 lung): 1.52 µM
TGI (NCI-H522 lung): 3.22 µM
GI50 (KM12 colon): 11.8 µM
TGI (KM12 colon): 28.6 µM
GI50 (HS 578T breast): 12.6 µM
TGI (HS 578T breast): 44.2 µM
GI50 (HT29 colon): 2.46 µM
TGI (HT29 colon): 7.92 µM
GI50 (HOP-92 NSCLC): 1.94 µM
TGI (HOP-92 NSCLC): 5.87 µM
GI50 (NCI/ADR-RES ovarian): 10.6 µM
TGI (NCI/ADR-RES ovarian): 37.9 µM
GI50 (SF-268 CNS): 5.17 µM
TGI (SF-268 CNS): 19.8 µM
GI50 (OVCAR-4 ovarian): 6.44 µM
TGI (OVCAR-4 ovarian): 20.4 µM
GI50 (UACC-62 melanoma): 1.88 µM
TGI (UACC-62 melanoma): 4.4 µM
GI50 (MALME-3M melanoma): 1.95 µM
TGI (MALME-3M melanoma): 4.24 µM
GI50 (RPMI-8226 leukemia): 2.02 µM
TGI (RPMI-8226 leukemia): 5.83 µM
GI50 (T-47D breast): 1.94 µM
TGI (T-47D breast): 5.06 µM
GI50 (UO-31 renal): 1.49 µM
TGI (UO-31 renal): 2.84 µM
GI50 (K-562 leukemia): 1.72 µM
TGI (K-562 leukemia): 8.29 µM
GI50 (MCF7 breast): 1.24 µM
TGI (MCF7 breast): 2.99 µM
GI50 (DU-145 prostate): 1.61 µM
TGI (DU-145 prostate): 4.37 µM
GI50 (SK-MEL-2 melanoma): 7.21 µM
TGI (SK-MEL-2 melanoma): 23.8 µM
GI50 (786-0 renal): 1.28 µM
TGI (786-0 renal): 2.95 µM
GI50 (HCC-2998 colon): 2.25 µM
TGI (HCC-2998 colon): 4.6 µM
GI50 (COLO 205 colon): 1.81 µM
TGI (COLO 205 colon): 3.76 µM
GI50 (SK-OV-3 ovarian): 13.4 µM
TGI (SK-OV-3 ovarian): 26.4 µM
GI50 (LOX IMVI melanoma): 1.36 µM
TGI (LOX IMVI melanoma): 2.85 µM
GI50 (ACHN renal): 1.78 µM
TGI (ACHN renal): 4.22 µM
GI50 (UACC-257 melanoma): 2.89 µM
TGI (UACC-257 melanoma): 8.74 µM
GI50 (MDA-MB-231 breast): 2 µM
TGI (MDA-MB-231 breast): 5.59 µM
GI50 (NCI-H23 lung): 4.3 µM
TGI (NCI-H23 lung): 17.7 µM
GI50 (SW-620 colon): 1.78 µM
TGI (SW-620 colon): 4.17 µM
GI50 (SF-539 CNS): 2.01 µM
TGI (SF-539 CNS): 5.37 µM
GI50 (IGROV1 ovarian): 1.85 µM
TGI (IGROV1 ovarian): 5.35 µM
GI50 (OVCAR-3 ovarian): 1.44 µM
TGI (OVCAR-3 ovarian): 3.07 µM
GI50 (A498 renal): 10.9 µM
TGI (A498 renal): 22.9 µM
GI50 (SNB-19 CNS): 8.75 µM
TGI (SNB-19 CNS): 22.6 µM
GI50 (PC-3 prostate): 6.49 µM
TGI (PC-3 prostate): 20.5 µM
GI50 (M14 melanoma): 2.06 µM
TGI (M14 melanoma): 6.08 µM
GI50 (SF-295 CNS): 10.7 µM
TGI (SF-295 CNS): 22.7 µM
GI50 (U251 CNS): 10 µM
TGI (U251 CNS): 22.1 µM
GI50 (OVCAR-5 ovarian): 3.25 µM
TGI (OVCAR-5 ovarian): 13.8 µM
GI50 (MDA-MB-435): 2.52 µM
TGI (MDA-MB-435): 10 µM
GI50 (TK-10 renal): 2.1 µM
TGI (TK-10 renal): 5.07 µM
GI50 (NCI-H226 lung): 2.2 µM
TGI (NCI-H226 lung): 5.73 µM
GI50 (HOP-62 NSCLC): 12.5 µM
TGI (HOP-62 NSCLC): 28.5 µM
GI50 (SN12C renal): 2.08 µM
TGI (SN12C renal): 5.69 µM
GI50 (A549 NSCLC): 14.9 µM
TGI (A549 NSCLC): 32.7 µM
GI50 (SK-MEL-5 melanoma): 7.03 µM
TGI (SK-MEL-5 melanoma): 20.5 µM
GI50 (HCT-116 colon): 1.16 µM
TGI (HCT-116 colon): 2.59 µM
GI50 (OVCAR-8 ovarian): 2.8 µM
TGI (OVCAR-8 ovarian): 9.13 µM
GI50 (SNB-75 CNS): 8.35 µM
TGI (SNB-75 CNS): 22.5 µM
GI50 (SR leukemia): 2.58 µM
TGI (SR leukemia): 10.5 µM
GI50 (NCI-H460 lung): 5.79 µM
TGI (NCI-H460 lung): 21.2 µM
GI50 (RXF 393 renal): 1.28 µM
TGI (RXF 393 renal): 2.66 µM

Source: PubChem BioAssay (NCI)
